Source: article PMC7866972, “Crosstalk of Cancer Signaling Pathways by Cyclic Hexapeptides and Anthraquinones from Rubia cordifolia” (Molecules, 2021)
In brackets after ≈: the same amount, converted by molar mass. Entries after “also recorded” stand apart in the source; their conditions may differ. Where two headings read alike, the source gives them in different places.

Experiments:
Type in all cases: cell-based
Stat3 = Stat3 luciferase reporter assay (IL-6 induced); conditions: Homo sapiens; for activity at 1 µg/mL: Hela cells, 4 h, read-out: percentage of luciferase induction Stat3/IL-6
Description: (§1) Hela cells from ATCC were plated in white opaque 384 well plates at a density of 4300 cells/well in 30 µL of a growth medium (DMEM with 10% FBS and 1% Pen/step). The next day, the medium was aspirated and replaced with DMEM containing 10% FBS. The cells were transfected with respective plasmids using the X-tremeGENE HP transfection reagent (Roche). Luciferase vectors used in this assay are summarized in Table S2, Supporting Information. After 24 h of transfection, the test agents were added to the transfected cells, followed 30 min later by an inducing agent (IL-6 for Stat 3, TGF-beta for Smad, m-wnt3a for Wnt and PMA for AP-1, NF-kB, E2F, Myc, ETS, Notch and Hedgehog). No inducer was added for FoXO, miR-21, and […]. After 4 h or 6 h of induction, the cells were lysed by the addition of the One-Glo luciferase assay system (Promega, Madison, WI, USA). The light output was detected in a Glomax Multi+ detection system with the Instinct Software (Promega, Madison, WI, USA). This luciferase assay determines if the test agent was able to inhibit the activation of cancer-related signaling pathways. In the case of FoxO and mi-R21, the enhanced luciferase activity by the test agent was assessed.

Smad = Smad luciferase reporter assay (TGF-beta induced); conditions: for percentage of luciferase induction Smad/TGF-b: Hela cells, 1µg/ml, 4 h
Description: as §1

Ap-1 = assay: AP-1 luciferase reporter assay (PMA induced); conditions: for activity at 1 µg/mL: Hela cells, 4 h, read-out: percentage of luciferase induction Ap-1/PMA
Description: as §1

NF-κB = NF-κB luciferase reporter assay (PMA induced); conditions: Homo sapiens; for activity at 1 µg/mL: Hela cells, 4 h, read-out: percentage of luciferase induction NF-kB/PMA
Description: as §1

E2F = E2F luciferase reporter assay (PMA induced); conditions: Homo sapiens; for activity at 1 µg/mL: Hela cells, 4 h, read-out: percentage of luciferase induction E2F/PMA
Description: as §1

Myc = Myc luciferase reporter assay (PMA induced); conditions: Homo sapiens; for activity at 1 µg/mL: Hela cells, 4 h, read-out: percentage of luciferase induction Myc/PMA
Description: as §1

Ets = Ets luciferase reporter assay (PMA induced); conditions: Homo sapiens; for activity at 1 µg/mL: Hela cells, 4 h, read-out: percentage of luciferase induction Ets/PMA
Description: as §1

Notch = Notch luciferase reporter assay (PMA induced); conditions: Homo sapiens; for activity at 1 µg/mL: Hela cells, 6 h, read-out: percentage of luciferase induction Notch/PMA
Description: as §1

FoxO = FoxO luciferase reporter assay (no inducer); conditions: for percentage of luciferase induction FoxO: Hela cells, 1µg/ml, 6 h
Description: as §1

Wnt = Wnt luciferase reporter assay (m-wnt3a induced); conditions: Homo sapiens; for activity at 1 µg/mL: Hela cells, 6 h, read-out: percentage of luciferase induction Wnt/m-wnt 3a
Description: as §1

Hedgehog = Hedgehog luciferase reporter assay (PMA induced); conditions: Homo sapiens; for activity at 1 µg/mL: Hela cells, 6 h, read-out: percentage of luciferase induction Hdghog/PMA
Description: as §1

miR-21 = miR-21 luciferase reporter assay (no inducer); conditions: Hela cells, 1µg/ml, 6 h
Description: as §1

pTK control vector = pTK control vector luciferase assay (minimal thymidine kinase promoter); conditions: no inducer; for percentage of luciferase induction pTK: Hela cells, 1µg/ml
Description: as §1

MDA-MB 231 cells = assay: Cytotoxicity assay (WST-8) of SGF/SIF treated and untreated peptide; conditions: 48 h, SGF pH 1.2 60 min or SIF pH 7.5 with pancreatin 8 h, 37 °C, unpaired t-test
Description: (§2) T98G and MDA-MB 231 cells from ATCC, were plated in clear 384-well plates at an initial density of 1700 cells/well for T98G cells and 2500 cells/well of MDA-MB 231 cells in 40 µL of a growth medium (DMEM with 10% FBS and 1% Pen/step). The next day, the test agents were added at the specified concentration, the treatment continued for 48 h, and the cell viability was finally assessed using the WST-8 assay Cell Counting Kit from Bimake, according to the manufacturer’s instructions. The results were measured by absorbance at 450 nm using the SpectraMax M5 plate reader (Molecular Devices). The cell viability was calculated in comparison to the DMSO control.
(§3) The simulated gastric fluid was prepared as described in the United States Pharmacopoeia (USP, 1995) and consists of 0.2% w/v of NaCl and 0.7% v/v of hydrochloric acid at pH 1.2. Aliquots (48 µL) of SGF were placed in 1.5-mL microcentrifuge tubes and incubated in a water bath at 37 °C [35]. In addition, 2 µL of compound 6 (10 mg/mL in DMSO) was added to each of the SGF vials to start the digestion reaction. The incubation was continued for 60 min and the digestion was stopped with 150 µL of ice-cold cell culture media. The digested samples were used for the cytotoxicity and luciferase assays at different concentrations and the activities were compared between the untreated and SGF treated peptide samples. […]

T98G cells = assay: as above; conditions: 48 h, SGF pH 1.2 60 min or SIF pH 7.5 with pancreatin 8 h, 37 °C, unpaired t-test
Description: as §2, §3

[1] = system: cancer-related signaling pathways in HeLa cells; assay: Panel of luciferase reporter genes for cancer-related signaling pathways
Description: as §1
The simulated gastric fluid was prepared as described in the United States Pharmacopoeia (USP, 1995) and consists of 0.2% w/v of NaCl and 0.7% v/v of hydrochloric acid at pH 1.2. Aliquots (48 µL) of SGF were placed in 1.5-mL microcentrifuge tubes and incubated in a water bath at 37 °C [35]. In addition, 2 µL of compound 6 (10 mg/mL in DMSO) was added to each of the SGF vials to start the digestion reaction. The incubation was continued for 60 min and the digestion was stopped with 150 µL of ice-cold cell culture media. The digested samples were used for the cytotoxicity and luciferase assays at different concentrations and the activities were compared between the untreated and SGF treated peptide samples.

[2] = SGF treated compound (pH 1.2, 37 °C, 60 min)
[3] = HeLa cells, agent added 30 min before PMA, harvested 4 h later, ND = No activity detected

SMILES: COc1ccc(C[C@H]2C(=O)N[C@@H](C)C(=O)N(C)[C@H]3Cc4ccc(cc4)Oc4cc(ccc4O)C[C@@H](C(=O)N[C@H](C)C(=O)N[C@@H](C)C(=O)N2C)N(C)C3=O)cc1 [Compound 6, deoxybouvardin]
- IC50 (Stat3; HeLa cells, agent added 30 min before IL-6, harvested 4 h later, ND = No activity detected): 0.18 µg/mL (≈ 0.238 µM)
- activity at 1 µg/mL (Stat3; [2]): -4%
- activity at 1 µg/mL (Stat3; untreated compound): -4%
- percentage of luciferase induction Smad/TGF-b (Smad; [2]): 41%
- percentage of luciferase induction Smad/TGF-b (Smad; untreated compound): 33%
- IC50 (Smad; Homo sapiens, HeLa cells, agent added 30 min before TGF-beta, harvested 4 h later, ND = No activity detected): 0.3 µg/mL (≈ 0.396 µM)
- IC50 (Ap-1; [3]): 0.22 µg/mL (≈ 0.291 µM)
- activity at 1 µg/mL (Ap-1; [2]): 43%
- activity at 1 µg/mL (Ap-1; untreated compound): 48%
- IC50 (NF-κB; [3]): 0.17 µg/mL (≈ 0.225 µM)
- activity at 1 µg/mL (NF-κB; [2]): 34%
- activity at 1 µg/mL (NF-κB; untreated compound): 33%
- IC50 (E2F; [3]): 0.36 µg/mL (≈ 0.476 µM)
- activity at 1 µg/mL (E2F; [2]): 8%
- activity at 1 µg/mL (E2F; untreated compound): 82%
- IC50 (Myc; [3]): 0.075 µg/mL (≈ 0.0991 µM)
- activity at 1 µg/mL (Myc; [2]): 20%
- activity at 1 µg/mL (Myc; untreated compound): -8%
- IC50 (Ets; [3]): 0.18 µg/mL (≈ 0.238 µM)
- activity at 1 µg/mL (Ets; [2]): 58%
- activity at 1 µg/mL (Ets; untreated compound): 60%
- IC50 (Notch; HeLa cells, agent added 30 min before PMA, harvested 6 h later, ND = No activity detected): 0.093 µg/mL (≈ 0.123 µM)
- activity at 1 µg/mL (Notch; [2]): 56%
- activity at 1 µg/mL (Notch; untreated compound): 65%
- percentage of luciferase induction FoxO (FoxO; [2]): 68%
- percentage of luciferase induction FoxO (FoxO; untreated compound): 51%
- IC50 (FoxO; Homo sapiens, HeLa cells, harvested 6 h later, ND = No activity detected): 0.1 µg/mL (≈ 0.132 µM)
- IC50 (Wnt; HeLa cells, agent added 30 min before m-wnt 3a, harvested 6 h later, ND = No activity detected): 0.05 µg/mL (≈ 0.0661 µM)
- activity at 1 µg/mL (Wnt; [2]): 12%
- activity at 1 µg/mL (Wnt; untreated compound): 6%
- IC50 (Hedgehog; HeLa cells, agent added 30 min before PMA, harvested 6 h later, ND = No activity detected, read-out: IC50 Hdghog/PMA): 0.2 µg/mL (≈ 0.264 µM)
- activity at 1 µg/mL (Hedgehog; [2]): 5%
- activity at 1 µg/mL (Hedgehog; untreated compound): 1%
- percentage of luciferase induction miR21 (miR-21; [2]): 150%
- percentage of luciferase induction miR21 (miR-21; untreated compound): 183%
- percentage of luciferase induction pTK (pTK control vector; [2]): 48%
- percentage of luciferase induction pTK (pTK control vector; untreated compound): 50%
- IC50 (pTK control vector; Homo sapiens, HeLa cells, ND = No activity detected): 0.9 µg/mL (≈ 1.19 µM)
- activity (cell viability) of SGF or SIF treated compared to untreated compound (MDA-MB 231 cells): remained the same before and after the treatment; also recorded: non-significant
- activity (cell viability) of SGF or SIF treated compared to untreated compound (T98G cells): remained the same before and after the treatment; also recorded: non-significant
- activity of SGF treated peptide across the panel of cancer signaling pathways compared to untreated peptide ([1]; Hela cells, SGF treated, Table S1): comparable to the untreated peptide
- IC50 ([1]; Homo sapiens, HeLa cells, summary statement on Table 1, read-out: IC50 values for several pathways across the panel): < 0.5 µg/mL
